Measured values reported in ChEMBL document CHEMBL3045068, “Effect of methomyl and oxamyl soil applications on early control of nematodes and insects” (Pest Manag Sci, 2011).
≈ marks a conversion by molar mass, not a printed value.

How the values were obtained:
Spodoptera exigua = assay: Insecticidal activity against Spodoptera exigua infested tomato assessed as mortality applied through foliar spray after 72 hr; type: functional
Phaseolus lunatus [1] = assay: Phytotoxicity in Phaseolus lunatus (lima bean) plant assessed as emergence at 1.56 kg ai/ha applied to soil measured up to 7 days under green house conditions (reference value: 70 +/- 16%); type: organism-based; conditions: in vivo, other, 168 h
Pisum sativum [2] = assay: Phytotoxicity in Pisum sativum (pea) assessed as emergence at 4 kg ai/ha applied to soil measured up to 7 days post planting at 19 degC relative to untreated control; type: organism-based; conditions: lathyrus oleraceus, in vivo, other, 168 h
Meloidogyne incognita [3] = assay: Nematicidal activity against second juvenile stage of Meloidogyne incognita (root-knot nematode) infected lima bean plant assessed as root dry weight at 4 kg ai/ha applied to soil measured up to 14 days post planting under green house conditions (reference value: 0.5 +/- 0.052 g); type: functional
Pisum sativum [4] = assay: Phytotoxicity in Pisum sativum (pea) assessed as plant height at 3 kg ai/ha applied to soil measured up to 7 days post planting at 19 degC (reference value: 6.2 +/- 0.6 cm); type: organism-based; conditions: lathyrus oleraceus, in vivo, other, 168 h
Phaseolus lunatus [5] = assay: Phytotoxicity in Phaseolus lunatus (lima bean) plant assessed as plant dry weight at 1.12 kg ai/ha applied to soil under green house conditions (reference value: 1.20 +/- 0.21 g); type: organism-based; conditions: in vivo, other
Gossypium hirsutum = assay: Phytotoxicity in Gossypium hirsutum (cotton) assessed as concentration required to cause foliar edge burn applied to soil after 4 weeks; type: organism-based; conditions: in vivo, other, 672 h
Pisum sativum [6] = assay: Phytotoxicity in Pisum sativum (pea) assessed as root dry weight at 3 kg ai/ha applied to soil measured up to 14 days post planting at 27 degC under green house conditions (reference value: 0.33 +/- 0.075 g); type: organism-based; conditions: lathyrus oleraceus, in vivo, other, 336 h
Pisum sativum [7] = assay: Phytotoxicity in Pisum sativum (pea) assessed as plant height at 3 kg ai/ha applied to soil measured up to 14 days post planting at 27 degC under green house conditions (reference value: 9.6 +/- 1.5 cm); type: organism-based; conditions: lathyrus oleraceus, in vivo, other, 336 h
Meloidogyne incognita [8] = assay: Nematicidal activity against second juvenile stage of Meloidogyne incognita (root-knot nematode) infected lima bean plant assessed as root dry weight at 1 kg ai/ha applied to soil measured during planting under green house conditions (reference value: 0.5 +/- 0.052 g); type: functional
Meloidogyne incognita [9] = assay: Nematicidal activity against second juvenile stage of Meloidogyne incognita (root-knot nematode) infected lima bean plant assessed as reduction in root gall index at 3 kg ai/ha applied to soil measured up to 14 days post planting under green house conditions (reference value: 7 +/- 0.27%); type: functional
Phaseolus lunatus [10] = assay: Phytotoxicity in Phaseolus lunatus (lima bean) plant assessed as plant dry weight at 1.56 kg ai/ha applied to soil measured up to 7 days under green house conditions (reference value: 1.20 +/- 0.21 g); type: organism-based; conditions: in vivo, other, 168 h
Pisum sativum [11] = assay: Phytotoxicity in Pisum sativum (pea) assessed as plant fresh weight at 4 kg ai/ha applied to soil measured up to 7 days post planting at 19 degC (reference value: 9.4 +/- 0.54 g); type: organism-based; conditions: lathyrus oleraceus, in vivo, other, 168 h
Pisum sativum [12] = assay: Phytotoxicity in Pisum sativum (pea) assessed as emergence at 3 kg ai/ha applied to soil measured up to 14 days post planting at 27 degC under green house conditions (reference value: 70 +/- 3.3%); type: organism-based; conditions: lathyrus oleraceus, in vivo, other, 336 h
Meloidogyne incognita [13] = assay: Nematicidal activity against second juvenile stage of Meloidogyne incognita (root-knot nematode) infected pea plant assessed as root dry weight at 2 kg ai/ha applied to soil measured up to 7 days post planting under green house conditions (reference value: 0.25 +/- 0.041 g); type: functional
Pisum sativum [14] = assay: Phytotoxicity in Pisum sativum (pea) assessed as plant height at 2 kg ai/ha applied to soil measured up to 7 days post planting at 19 degC (reference value: 6.2 +/- 0.6 cm); type: organism-based; conditions: lathyrus oleraceus, in vivo, other, 168 h
Pisum sativum [15] = assay: Phytotoxicity in Pisum sativum (pea) assessed as root dry weight at 2 kg ai/ha applied to soil measured up to 7 days post planting at 27 degC under green house conditions (reference value: 0.33 +/- 0.075 g); type: organism-based; conditions: lathyrus oleraceus, in vivo, other, 168 h
Meloidogyne incognita [16] = assay: Nematicidal activity against second juvenile stage of Meloidogyne incognita (root-knot nematode) infected pea plant assessed as root dry weight at 4 kg ai/ha applied to soil measured up to 7 days post planting under green house conditions (reference value: 0.25 +/- 0.041 g); type: functional
Meloidogyne incognita [17] = assay: Nematicidal activity against second juvenile stage of Meloidogyne incognita (root-knot nematode) infested soil containing cucumber seeds assessed as mortality applied post seed germination measured after 7 days under green house conditions; type: functional
Phaseolus lunatus [18] = assay: Phytotoxicity in Phaseolus lunatus (lima bean) root assessed as root dry weight at 2.12 kg ai/ha applied to soil measured up to 7 days under green house conditions (reference value: 0.36 +/- 0.071 g); type: organism-based; conditions: in vivo, other, 168 h
Meloidogyne incognita [19] = assay: Nematicidal activity against second juvenile stage of Meloidogyne incognita (root-knot nematode) infected lima bean plant assessed as shoot dry weight at 1 kg ai/ha applied to soil measured during planting under green house conditions (reference value: 1.84 +/- 0.18 g); type: functional
Meloidogyne incognita [20] = assay: Nematicidal activity against second juvenile stage of Meloidogyne incognita (root-knot nematode) infected pea plant assessed as plant emergence at 3 kg ai/ha applied to soil measured up to 7 days post planting under green house conditions (reference value: 75 +/- 13%); type: functional
Solanum lycopersicum = assay: Phytotoxicity in Solanum lycopersicum (tomato) assessed as concentration required to cause foliar edge burn applied to soil after 5 weeks; type: organism-based; conditions: in vivo, 840 h

## CNC(=O)ON=C(C)SC [METHOMYL]
Spodoptera exigua
  LC90: 60 µg/mL (≈ 370 µM)
Spodoptera exigua; Spodoptera exigua, foliar, 72 h
  LC50: 29 µg/mL (≈ 179 µM)
Phaseolus lunatus [1]
  Activity: 80%
Pisum sativum [2]
  Activity: 100%
Meloidogyne incognita [3]
  Activity: 0.27 g
Pisum sativum [4]
  Activity: 6.9 cm
Phaseolus lunatus [5]
  Activity: 1.51 g
Gossypium hirsutum
  Activity: 100 µg/mL
Pisum sativum [6]
  Activity: 0.27 g
Pisum sativum [7]
  Activity: 9.1 cm
Meloidogyne incognita [8]
  Activity: 0.44 g
Meloidogyne incognita [9]
  Root_galling_index: 0%
Phaseolus lunatus [10]
  Activity: 1.26 g
Pisum sativum [11]
  Activity: 8.5 g
Pisum sativum [12]
  Activity: 80%
Meloidogyne incognita [13]
  Activity: 0.34 g
Pisum sativum [14]
  Activity: 7.3 cm
Pisum sativum [15]
  Activity: 0.16 g
Meloidogyne incognita [16]
  Activity: 0.28 g
Meloidogyne incognita [17]
  LC90: 69.7 mg/L (≈ 430 µM)
Meloidogyne incognita [17]; Meloidogyne incognita, Juvenile stage, 168 h
  LC50: 10.2 µg/mL (≈ 62.9 µM)
Phaseolus lunatus [18]
  Activity: 0.2 g
Meloidogyne incognita [19]
  Activity: 1.79 g
Meloidogyne incognita [20]
  Activity: 13%
Solanum lycopersicum
  Activity: 100 µg/mL
